Data on three molecules can be found in US11628159B2, “Cell-protective compounds and their use” (ETH ZURICH, priority 2017, dated 2023).

Entries after “also recorded” stand apart in the source; their conditions may differ. Like-named read-outs stand apart in the source and are kept apart here.

For one experiment, the target named is T1, GRK2 (Homo sapiens, UniProt P25098).
T1 construct: fused on or other part: hexahistidine tag
T1 sequence (P25098 1-669 limits assumed): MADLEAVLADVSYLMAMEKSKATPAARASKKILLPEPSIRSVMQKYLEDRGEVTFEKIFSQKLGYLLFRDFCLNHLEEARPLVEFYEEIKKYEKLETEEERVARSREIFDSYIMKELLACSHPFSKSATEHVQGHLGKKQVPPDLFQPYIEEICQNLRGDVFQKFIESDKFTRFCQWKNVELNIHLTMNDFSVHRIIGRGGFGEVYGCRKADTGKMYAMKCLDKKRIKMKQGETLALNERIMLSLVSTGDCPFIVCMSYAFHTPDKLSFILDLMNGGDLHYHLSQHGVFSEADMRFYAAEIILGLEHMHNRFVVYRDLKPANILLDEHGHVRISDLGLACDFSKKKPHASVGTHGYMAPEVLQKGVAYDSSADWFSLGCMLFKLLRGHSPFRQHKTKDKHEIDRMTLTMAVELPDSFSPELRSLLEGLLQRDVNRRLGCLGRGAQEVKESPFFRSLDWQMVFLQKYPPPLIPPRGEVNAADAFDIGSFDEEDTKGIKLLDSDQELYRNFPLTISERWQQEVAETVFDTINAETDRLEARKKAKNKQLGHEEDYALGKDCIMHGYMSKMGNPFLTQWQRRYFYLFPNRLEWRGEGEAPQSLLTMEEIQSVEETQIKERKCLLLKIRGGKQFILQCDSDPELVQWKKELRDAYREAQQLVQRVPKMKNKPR
Description: In vitro phosphorylation assay: GRK2-mediated phosphorylation of SRSF1 with purified proteins. The class given is biochemical. The settings on record: for IC50: purified proteins. As to the method: The GRK2-mediated phosphorylation of SRSF1 was determined with purified proteins in the presence of increasing concentrations of paroxetine or different small molecule compounds. SRSF1 phosphorylation is presented as % of control, which is the SRSF1 phosphorylation in the absence of inhibitor.
Recombinant human GRK2 protein and GRK2-S670A protein was expressed in and purified from Spodoptera frugiperda (Sf9) cells by the baculoviral expression system. […] Sf9 cells were infected with recombinant baculoviruses at an MOI of 2-3, 48 h after infection cells were harvested by centrifugation, lysed with lysis buffer (300 mM NaCl, 50 mM HEPES, pH 7.5 supplemented with 1% NP40, 1 mM PMSF and protease inhibitor cocktail) and applied to Ni-NTA chromatography. After overnight incubation at 4° C., unbound proteins were removed by washing with lysis buffer (20× column volumes) followed by 1× column volume of 30 mM imidazole-containing lysis buffer. Bound GRK2 was eluted by 300 mM imidazole in lysis buffer, desalted by PD10 column chromatograpy, supplemented with 20% glycerol and stored at −80° C. for further use.
Protein-expressing bacteria were collected by centrifugation, frozen in liquid nitrogen and thawed on ice in lysis buffer (8 M urea, 300 mM NaCl, 50 mM HEPES, 10 mM imidazole, pH 7.5), which was supplemented with 2-mercaptoethanol (0.7 ml/L) freshly before use (10 ml of lysis buffer for a bacterial pellet from 200 ml of culture medium). The bacterial lysate was incubated for 1 h at room temperature, sonicated and centrifuged for 15 min at 4000×g at 4° C. The supernatant was applied to the Ni-NTA column matrix prewashed with 20 ml of lysis buffer. […] Finally, proteins were eluted with elution buffer (300 mM NaCl, 50 mM HEPES, 500 mM imidazole, pH 7.5, supplemented freshly with 0.7 ml/L 2-mercaptoethanol). Buffer of eluted proteins was exchanged to 150 mM NaCl, 50 mM HEPES (pH 7.5) by PD10 column chromatography.
Recombinant proteins were used for an in vitro phosphorylation assay with GRK2 and GRK2-S670A. […] After an incubation for 30 min at 30° C., the reaction was stopped by the addition of 5×SDS-Laemmli buffer. Proteins were separated by SDS-PAGE and subjected to autoradiography. […] After an incubation for 30-60 min at 30° C., the phosphorylation was stopped by the addition of 5 volumes of ice-cold reaction buffer. The reaction mixtures were immediately applied to glass fiber filters (GF/C, WHATMAN™, GE Healthcare Life Sciences, Glattbrugg, Switzerland). After three washing steps with 5 ml of reaction buffer, filter-bound radioactivity was determined in a β-counter.

A further experiment concerns B6 mice with AAC. Kind of experiment: Chronic pressure overload (AAC) model of heart failure, oral treatment for 2 months. The experiment is classed as in vivo, mouse. The settings on record: for left ventricular ejection fraction: B6 mice, oral 2 months, Compound-1 3 mg/kg/d, Compound-4 5 mg/kg/d, untreated AAC 28.6%±3.5%, ±s.d., n=5. As to the method:
A, The left ventricular ejection fraction was determined in 6 month-old male B6 mice with chronic pressure overload imposed by 3 months of AAC and oral treatment with Compound-1 (AAC+compd-1) and Compound-4 (AAC+compd-4) relative to untreated AAC controls. Treatment was started one month after AAC induction and was continued for 2 months. Only mice with heart failure (ejection fraction <34% after one month of AAC) were included in the study (±s.d., n=5/group, ***p=0.0006, **p=0.0051 vs. untreated AAC; Dunnett's multiple comparison test).
We investigated whether the new small molecule GRK2 inhibitors, Compound-1 (1-(1,3-benzodioxol-5-yl)-4-(cyclopropanecarbonyl)-3-hydroxy-2-phenyl-2H-pyrrol-5-one)) and Compound-4 (4-(1,3-benzodioxol-5-yl)pyrimidine) could retard symptoms of heart failure in a chronic pressure overload model of heart failure imposed by abdominal aortic constriction (AAC). Compound-1 (3 mg/kg/d) and Compound-4 (5 mg/kg/d) were applied orally in the AAC-induced model of heart failure. Oral treatment with Compound-1 and Compound-4 was initiated in B6 mice with symptoms of heart failure (left ventricular ejection fraction <34%) induced by four weeks of AAC.
Chronic pressure overload imposed by abdominal aortic constriction (AAC) was used as an experimental model to induce cardiac hypertrophy and signs of heart failure. Aortic constriction of the abdominal aorta was performed in tribromoethanol-anesthetized 8-12 week-old transgenic mice or non-transgenic B6 controls as described (AbdAlla S, et al., Cardiovasc. Hematological Agents Med. Chem. 9, 190-206 (2011)). The abdominal aorta was constricted above the suprarenal artery by tying a 7-0 silk suture ligature against a blunt 26-gauge needle. Age-matched controls underwent identical surgical procedure except for ligation of the aorta (sham-operated mice).

The mark [1] stands for this setting: read-out: IC50 value, inhibition of GRK2-mediated SRSF1 phosphorylation.

For the molecule `c1cc(-c2ccc3c(c2)OCO3)ncn1` [Compound-4, 4-(1,3-benzodioxol-5-yl)pyrimidine], the IC50 – broadly, the concentration at which inhibition is half-maximal – on GRK2 (setting [1]) is 1870 nM. In the experiment on B6 mice with AAC (3 months AAC), the “left ventricular ejection fraction” value was 38.2±3.7%.

Consider `O=C(C1=C(O)C(c2ccccc2)N(c2ccc3c(c2)OCO3)C1=O)C1CC1` (stereo not drawn) [Compound-1, 1-(1,3-benzodioxol-5-yl)-4-(cyclopropane-carbonyl)-3-hydroxy-2-phenyl-2H-pyrrol-5-one], for which the “IC50 value lower than that of paroxetine” value on GRK2 (GRK2-mediated SRSF1 phosphorylation) was “more than 5 fold”. For the same molecule, the IC50 on GRK2 (n=4, read-out: IC50 value, inhibition of GRK2-mediated phosphorylation of SRSF1) was determined as 450 nM; on GRK2 (setting [1]) it was 450 nM. The “cardiovascular disease-induced ageing (grey coloring of the hair)” value in the experiment on B6 mice with AAC (2 months (8 weeks) of treatment, AAC mice) is given as “substantially retarded”. The “AAC-induced cardiac hypertrophy (histology)” value in the experiment on B6 mice with AAC (3 months AAC, 2 months oral treatment) is “retards; also recorded: decrease”. Also, in the experiment with B6 mice with AAC (3 months AAC), the “left ventricular ejection fraction” value amounted to 41.4±4.8%.

B1: RKIP: raf kinase inhibitor protein, a dual-specific GRK2 and Raf kinase inhibitor (protein, UniProt P30086 2-187, looked up)
Phosphatidylethanolamine-bindi …: PVDLSKWSGPLSLQEVDEQPQHPLHVTYAGAAVDELGKVLTPTQVKNRPTSISWDGLDSGKLYTLVLTDPDAPSRKDPKYREWHHFLVVNMKGNDISSGTVLSDYVGSGPPKGTGLHRYVWLVYEQDRPLKCDEPILSNRSGDHRGKFKVASFRKKYELRAPVAGTCYQAEWDDYVPKLYEQLSGK
As for B1, the “Inhibition of the in vitro phosphorylation of SRSF1 by GRK2” value with GRK2 (result in words) is reported as “does not inhibit; also recorded: did not inhibit”.
